The source of these data is PubChem BioAssay AID1996.

The structures appear in SMILES notation. Converted amounts (≈) assume the structure as drawn.

The conditions of the data set: buffer; pH 7.4; 200.0 µM.
One may read the solubility (kinetic) as the concentration staying in solution when a stock, usually in DMSO, is diluted into the medium. For `O=C(Nc1ccc(F)c(Cl)c1)Nc1csc2ccccc12`, the solubility (kinetic) was found to be 1 µg/mL (≈ 3.12 µM).

`CC(C)(C)C(=O)Nc1ccc(C(=O)COC(=O)c2ccccn2)cc1` displayed a solubility (kinetic) of 50.2 µg/mL (≈ 147 µM). The same measure for `CC(OC(=O)c1ccccc1)C(=O)NCCC1=CCCCC1` (centres undefined): > 45.2 µg/mL; for `CCC(C)[C@H](NC(=O)Nc1ccccc1F)C(=O)OC` (some centres undefined): > 42.3 µg/mL. The figure for `CCOCCCNC(=O)c1ccc(NC(=O)C2CCCO2)cc1` (centres undefined) is > 48.1 µg/mL. In the case of `NS(=O)(=O)c1ccc(O)c(NC(=O)c2ccc([N+](=O)[O-])o2)c1`, the solubility (kinetic) was > 49.1 µg/mL. The same measure for `CCN1CCN(CCC(=O)Nc2cccc(C)c2)CC1.Cl`: 46.4 µg/mL. The same measure for `Cc1cccc(NC(=O)CSc2ncnc3sc(C)cc23)c1`: 0.7 µg/mL (≈ 2.12 µM); for `C=CCc1ccc(OC(=O)NC2CCCCC2)c(OC)c1`: 4.5 µg/mL (≈ 15.6 µM); for `C=C(c1ccccc1)c1ccc(N(C)C)cc1`: 2.3 µg/mL (≈ 10.3 µM). The same measure for `CN1CCC(CO)(Cc2ccccc2)CC1`: 28.6 µg/mL (≈ 130 µM). Molecule `O=C1c2ccsc2SCCN1Cc1cccc(F)c1` displayed a solubility (kinetic) of 42.6 µg/mL (≈ 145 µM). The figure for `O=C(NC(=S)Nc1cccc2ncccc12)c1ccccc1` is 2.7 µg/mL (≈ 8.78 µM); for `CC(=O)NC1(C(F)(F)F)NC(=O)N(CCc2ccccc2)C1=O` (centres undefined) it is > 49.4 µg/mL.

For `COCC(=O)Nc1ccc(Br)c(C)c1`, the kinetic solubility is > 38.7 µg/mL.

As to `Cc1nccc(-c2sc(-c3cccs3)nc2C)n1`, the solubility (kinetic) stood at 2.6 µg/mL (≈ 9.51 µM).

`COc1ccc(NC(=O)C2CCCN(C(=O)Nc3ccc(F)cc3)C2)cc1OC` (centres undefined) came in with a kinetic solubility of 13.2 µg/mL (≈ 32.9 µM). The figure for `Cc1c(NC(=O)C(C)Oc2cccc(F)c2)c(=O)n(-c2ccccc2)n1C` (centres undefined) is > 55.4 µg/mL; for `COc1ccc(NC(=O)NC(=O)c2ccccc2)cc1` it is 1.3 µg/mL (≈ 4.81 µM). Regarding `CC(C)CCNCC(O)CON=C1c2ccccc2-c2ccccc21` (centres undefined), the solubility (kinetic) amounted to 47.4 µg/mL (≈ 140 µM). `Cc1cc(C(=O)COC(=O)Cc2ccc(Br)cc2)c(C)n1C` returned a solubility (kinetic) of 15.2 µg/mL (≈ 41.7 µM). The same measure for `CS(=O)(=O)Nc1cc2c3c(c1)CCC(=O)N3CCC2`: 39.9 µg/mL (≈ 142 µM); for `O=C(Nc1ccc(N2CCOCC2)cc1N1CCOCC1)c1ccccc1`: > 55.1 µg/mL; for `O=C(NC1CCSc2ccccc21)c1cccc([N+](=O)[O-])c1` (centres undefined): 2.4 µg/mL (≈ 7.63 µM). The figure for `Cc1occc1C(=O)Nc1sccc1C(N)=O` is 10.7 µg/mL (≈ 42.8 µM); for `Cc1ccc2c(c1)N(CC(=O)N1CCCCC1)C(=O)CO2` it is > 43.3 µg/mL; for `COc1cc(OC)cc(C(=O)N[C@H](C(=O)OCC(=O)c2c[nH]c3ccccc23)C(C)C)c1` it is 3.8 µg/mL (≈ 8.67 µM). For `Cc1ccc(SCC(=O)NC(C)c2ccccc2)cc1` (centres undefined), the solubility (kinetic) was > 42.8 µg/mL. The molecule `COC(=O)COc1ccc(S(=O)(=O)N2CCCCCC2)cc1C` registered a kinetic solubility of 39.3 µg/mL (≈ 115 µM). The same measure for `CC(=O)C1=C(C)NC(=S)NC1c1cccc([N+](=O)[O-])c1` (centres undefined): 3.5 µg/mL (≈ 12 µM). Regarding `C=CCn1cccc(C(=O)Nc2ccc(Cl)cc2)c1=O`, the kinetic solubility came to 3.4 µg/mL (≈ 11.8 µM).

For `COc1ccc(NS(=O)(=O)c2c(C)[nH]c(=O)[nH]c2=O)cc1OC`, the kinetic solubility is > 51.2 µg/mL. The same measure for `Cc1ccc(S(=O)(=O)N2CCc3ccccc3C2CC(=O)O)cc1` (centres undefined): > 51.8 µg/mL.

For `O=C(Nc1ccc(S(=O)(=O)Nc2ccccn2)cc1)C(F)(F)F`, the solubility (kinetic) was > 51.8 µg/mL. The molecule `CNC(=O)NC(=O)C(C)Oc1ccccc1F` (centres undefined) returned a solubility (kinetic) of 34.9 µg/mL (≈ 145 µM). The same measure for `O=C(COC(=O)CNC(=O)c1ccccc1)Nc1ccc(Cl)cn1`: 15.8 µg/mL (≈ 45.4 µM); for `N#CCCN(C(=O)CN1CCN(S(=O)(=O)c2ccc(Cl)s2)CC1)c1ccc(F)cc1`: > 70.6 µg/mL. The same measure for `CC(=O)c1c[nH]c(C(=O)NC2CCCCCC2)c1`: 34.9 µg/mL (≈ 141 µM); for `COc1ccc(CNC(=O)C(=O)NC2CC(C)(C)NC(C)(C)C2)cc1`: > 52.1 µg/mL. The same measure for `CS(=O)(=O)N1CCN=C1SCc1ccccc1`: > 40.6 µg/mL; for `O=C(O)CC1(CC(=O)Nc2ccccc2N2CCOCC2)CCCC1`: > 52 µg/mL; for `O=C(c1ccco1)N1CCN(CCOc2ccccc2)CC1`: 42.7 µg/mL (≈ 142 µM). In the case of `CC(=O)CN1C(=O)NC2(CCCc3ccccc32)C1=O` (centres undefined), the kinetic solubility was > 40.8 µg/mL.

`CC(=O)c1ccc(NC(=O)c2ccc3nc(C)sc3c2)cc1` returned a kinetic solubility of 1.9 µg/mL (≈ 6.12 µM). The figure for `O=C(COC(=O)/C=C/c1cccc(Cl)c1)NC1CC1` is 4.8 µg/mL (≈ 17.2 µM). Consider `Cc1cc(C(=O)CN2C(=O)NC(CCS(C)(=O)=O)C2=O)c(C)n1C1CC1` (centres undefined), for which the kinetic solubility is 48.3 µg/mL (≈ 127 µM).

`COc1ccc(CC(=O)N2CCC(c3ccccc3)C2)cc1` (centres undefined) displayed a solubility (kinetic) of 40.8 µg/mL (≈ 138 µM).

The molecule `COc1ccc(SCC2CN(C)CCC2c2ccc(F)cc2)cc1.Cl` (centres undefined) had a kinetic solubility of 32.5 µg/mL.

In the case of `Cc1ccc(N2CCCC2=O)cc1S(=O)(=O)N1CCOCC1`, the solubility (kinetic) was > 48.7 µg/mL.

The molecule `COc1ccccc1NC(=O)c1ccc(S(=O)(=O)N(C)c2ccccc2OC)cc1` had a kinetic solubility of 7 µg/mL (≈ 16.4 µM). The figure for `CCCn1c2c(c(=N)c3c1CCC3)CCC2.I` is > 51.6 µg/mL.

As to `CCOc1ccc(NC(=S)NCCCN2CCOCC2)cc1`, the kinetic solubility was > 48.5 µg/mL. The figure for `Cc1ccoc1C(=O)Nc1ccc2ccccc2c1` is 7.5 µg/mL (≈ 29.8 µM). The same measure for `Cc1cc(SCc2ccc([N+](=O)[O-])cc2)nc(=O)[nH]1`: 24.2 µg/mL (≈ 87.3 µM); for `COc1ccc(-n2ccnc2SCC(=O)NO)cc1`: > 41.9 µg/mL. The figure for `[O-][n+]1ccc(OCc2ccccc2)cc1` is > 30.2 µg/mL; for `CSCCNC(=O)c1ccc2nc(C3CCCCC3)oc2c1` it is 13.2 µg/mL (≈ 41.5 µM). `O=C(O)c1ccc2c(c1)SC1=NS(=O)(=O)CCN12`: the solubility (kinetic) is > 42.6 µg/mL. The same measure for `Cc1cccc(-n2c(C)cc(C(=S)N3CCOCC3)c2C)c1C`: 28.2 µg/mL (≈ 85.8 µM). The same measure for `Cc1ccc2nc(SCC(=O)NC3CC3)[nH]c2c1`: > 39.2 µg/mL; for `O=c1[nH]c2ccc([N+](=O)[O-])cc2nc1/C=C(\O)c1ccccc1`: 2.3 µg/mL (≈ 7.44 µM); for `Cc1ccc(C(=O)NCC(=O)NC2CCCC2)cc1`: 30.4 µg/mL (≈ 117 µM). In the case of `CC(C)N1CCN(c2ccc(S(=O)(=O)N3CCOCC3)cn2)CC1`, the kinetic solubility is > 53.2 µg/mL. For the molecule `CCOc1ccc(/C=C(\C)C(=O)c2c(C)cc(C)[nH]c2=O)cc1`, the solubility (kinetic) was 38.3 µg/mL (≈ 123 µM). The figure for `Cc1[nH]ccc(=O)c1Cc1c(Cl)cccc1Cl` is > 40.2 µg/mL; for `COc1ccccc1NC(=O)c1cccc2c(Br)cccc12` it is < 0.8 µg/mL. The figure for `Cc1cccc(NC(=S)N(C)C)c1C` is > 31.2 µg/mL; for `N#Cc1ccc(CSc2nc(N)cc(N)n2)cc1` it is 37.3 µg/mL (≈ 145 µM); for `COc1ccc(CNC(=O)c2sccc2C)cc1` it is > 39.2 µg/mL. The same measure for `O=S(=O)(Cc1noc(-c2ccc(OC(F)(F)F)cc2)n1)c1ccc(F)cc1`: < 0.4 µg/mL; for `CC(C(=O)N1CCOCC1)n1cc([N+](=O)[O-])cn1` (centres undefined): > 38.1 µg/mL.

On to `Brc1c(NC2=NCCN2)ccc2nccnc12`, for which the solubility (kinetic) stood at 11.2 µg/mL (≈ 38.3 µM). The figure for `O=C(CCCc1nc2ccccc2s1)NCc1cccnc1` is > 46.7 µg/mL; for `CC(=O)c1cn(CC(=O)Nc2ccc(C)c(C)c2)c2ccccc12` it is < 0.3 µg/mL.

On to `COc1ccccc1NC(=O)C(C)OC(=O)Cc1ccsc1` (centres undefined), for which the kinetic solubility was > 47.9 µg/mL. The figure for `Cc1c(C(=O)NC(=S)Nc2cccnc2)cccc1[N+](=O)[O-]` is 0.9 µg/mL (≈ 2.85 µM). `CCOC(=O)C1=C(C)N(C)C(=S)N(C)C1c1ccc(OC)cc1` (centres undefined) came in with a kinetic solubility of 19.8 µg/mL (≈ 59.2 µM). `Cc1ccccc1NC(=O)c1ccc(OCc2c(C)noc2C)cc1`: the solubility (kinetic) stood at 42.3 µg/mL (≈ 126 µM). The same measure for `CCCn1cnc2cc(NC(=O)c3cccs3)ccc21`: > 42.8 µg/mL; for `N#Cc1cccc(NC(=O)CNC(=O)Cc2ccccc2)c1`: 42.1 µg/mL (≈ 144 µM). In the case of `COc1ccc(CCNC(=S)NCCc2ccc(OC)c(OC)c2)cc1OC`, the solubility (kinetic) was > 60.7 µg/mL. Take `C/C(=N\OC(=O)c1ccccc1)c1c(C)nc2cc(C)ccn12`: the kinetic solubility turned out to be 44.7 µg/mL (≈ 145 µM). `CC(C)CCNC(=O)COc1ccc(C(=O)c2ccccc2)cc1` displayed a solubility (kinetic) of 13.5 µg/mL (≈ 41.5 µM). `O=C(Nc1nccs1)C1CC(=O)N(Cc2ccco2)C1` (centres undefined) came in with a kinetic solubility of 40.7 µg/mL (≈ 140 µM). The same measure for `O=C(NCC(=O)N1CCN(c2ccccc2)CC1)c1ccco1`: > 47 µg/mL. The figure for `Cc1ccnc(NC(=O)c2cnc(Cl)c(Cl)c2)c1` is 6.4 µg/mL (≈ 22.7 µM). The figure for `C[N+](C)(C)CCCCCC[N+](C)(C)C.[Br-]` is > 54.3 µg/mL; for `CCOC(=O)Cc1csc(SCC(=O)N2CCN(c3ccccc3)CC2)n1` it is > 60.8 µg/mL; for `Cc1nonc1NC(=O)CSc1nc2ccccc2o1` it is 42.4 µg/mL (≈ 146 µM). `COc1ccc(NC(=S)Nc2ccc3nccnc3c2)cc1` had a kinetic solubility of 22.8 µg/mL (≈ 73.5 µM). The figure for `CC1COC(Cn2c3ccccc3c3ccccc32)O1` (centres undefined) is 12.1 µg/mL (≈ 45.3 µM). With `Cc1nn(C)c(C)c1NC(=O)COc1ccccc1C#N`, the solubility (kinetic) is > 42.6 µg/mL. The same measure for `CCc1ccc(NC(=O)c2[nH]c(C)c(C(C)=O)c2C)cc1`: 5.1 µg/mL (≈ 17.9 µM). The figure for `O=C(Nc1nccs1)c1ccc(COc2ccccc2Cl)o1` is 0.9 µg/mL (≈ 2.69 µM); for `CCN1CCN(C(C)CCc2ccccc2)CC1` (centres undefined) it is 30.6 µg/mL (≈ 124 µM); for `O=C(Cc1ccc([N+](=O)[O-])cc1)NCc1cccnc1` it is > 40.7 µg/mL. The same measure for `Cc1cccc(C)c1NC(=O)C[n+]1cc(-c2ccccc2)n2c1CCC2.[Cl-]`: > 57.3 µg/mL; for `CC(C)N1C(=O)CCC1C(=O)NCc1ccco1` (centres undefined): 29.2 µg/mL (≈ 117 µM). `Cc1ccc(S(=O)(=O)Nc2ccc(F)cc2)cc1C(=O)N1CCOCC1`: the kinetic solubility was > 56.8 µg/mL. With `Cc1ccc2c(CN3CCN(Cc4ccccc4)CC3)cc(=O)oc2c1C`, the kinetic solubility was found to be 25.4 µg/mL (≈ 70.1 µM).

As to `Oc1ccc2ccccc2c1C=NC12CN3CCN(CN(C3)C1)C2`, the solubility (kinetic) amounted to 46.5 µg/mL (≈ 144 µM). The same measure for `CN(C(=O)COC(=O)c1ccc[nH]c1=O)C1CCCCC1`: > 43.9 µg/mL; for `CCC(=O)Nc1cccc(-c2nc3ncccc3o2)c1C`: > 42.2 µg/mL; for `O=C(NCCc1ccccc1)c1ccc2c(c1)OCO2`: 39.6 µg/mL (≈ 147 µM).
